# Source: ChEMBL document CHEMBL4831518, “Structure-aided optimization of non-nucleoside M. tuberculosis thymidylate kinase inhibitors” (Eur J Med Chem, 2021)
# Experiments:
# [1] = test system: Mycobacterium tuberculosis; assay: Antibacterial activity against Mycobacterium tuberculosis H37Rv harboring Tap deletion mutant assessed as inhibition of bacterial growth incubated for 6 hrs by microdilution assay; type: functional
# [2] = test system: Mycobacterium tuberculosis; assay: Antibacterial activity against Mycobacterium tuberculosis H37Rv harboring mmr deletion mutant assessed as inhibition of bacterial growth incubated for 6 hrs by microdilution assay; type: functional
SMILES,MIC [1],MIC [2]
Cc1cn(C2CCN(Cc3ccnc(Oc4cccc(Cl)c4)c3)CC2)c(=O)[nH]c1=O,31.25 µg/mL,31.25 µg/mL
Cc1cn(C2CCN(Cc3cccc(Oc4ccccc4)n3)CC2)c(=O)[nH]c1=O,>250 µg/mL,>250 µg/mL
Cc1ccc(Oc2cccc(CN3CCC(n4cc(C)c(=O)[nH]c4=O)CC3)c2)cc1,15.6 µg/mL,15.6 µg/mL
Cc1cn(C2CCN(Cc3cccc(Oc4cc(Cl)cc(Cl)c4)c3)CC2)c(=O)[nH]c1=O,15.6 µg/mL,15.6 µg/mL
COc1ccc(Oc2cccc(CN3CCC(n4cc(C)c(=O)[nH]c4=O)CC3)c2)cc1,31.25 µg/mL,15.6 µg/mL
